The text below walks through data of patent US20110104290A1, “COMPOSITIONS FOR REDUCING BLOOD GLUCOSE LEVEL AND USES THEREOF” (priority 2008, published 2011).

This assay concerns STZ-induced hyperglycemic rats. Put plainly: Anti-hyperglycemic effect in STZ-induced hyperglycemic rats (serum blood glucose level). The assay is classed as in vivo, Sprague-Dawley (SD) rats. How it is done:
For the purpose of the present invention, the dietary supplement prepared in accordance with Example 1 is named Composition 1. Composition 1 is an herbal supplement used for control of blood glucose level. The purpose of this study was to assess the anti-hyperglycemic effect of Composition 1 tablet in STZ-induced hyperglycemic rats.
Sprague-Dawley (SD) rats weighing 230˜270 g were used to establish the hyperglycemic rat model. Animals were fasted for 18 hours before receiving a single intraperitoneal injection of 2% STZ at a dose of 40 mg/kg BW (2.0 ml/kg). Six SD rats were selected as the Blank Control Group and injected intraperitoneally with citric acid buffer at a dose of 2.0 ml/kg BW. All rats had free access to food and water after the injection. Blood samples were collected from rats' posterior orbits veins at 72 hours after the injection for determination of the blood glucose level. Successful establishment of hyperglycemic rat model was defined as a non-fasting venous blood glucose level≧13.8 mmol/L. […]
The clinical dose of Metformin for human is 1˜1.5 g/day, which is about 0.025 g/kg body weight/day for an adult. The administration dose of Metformin for rat was calculated to be 0.25 g/kg body weight/day, 10 times of human clinical dose. […]

Take `CN(C)C(=N)N=C(N)N` [Metformin]: under “Metformin Control Group 0.25 g/kg/day, 3rd and 4th weeks after the beginning of administration, p<0.05”, the “blood glucose levels compared to the Model Control Group” value was “lower”. For the setting “Metformin Control Group, 0.25 g/kg/day i.g., after the 4-week treatment”, the “decrease of end-point blood glucose level compared to level prior to the treatment” value was 59%.
